# According to patent US6136845A (The Texas A&M University System, priority 1998, dated 2000):
# Where two headings read alike, the source gives them in different places.
# How the values were obtained:
# [1] = system: MCF-7 human breast cancer cell lines; conditions: MCF-7 cells in culture; cited from earlier work
# CYP1A1 [2] = conditions: cited from earlier work; for ED50 for induction of hepatic CYP1A1-dependent activity: 6-i-propyl value estimated
# [3] = in vivo; cited from earlier work
# ER = conditions: 21 to 25 day-old female Sprague-Dawley rat uterus; cited from earlier work
# mammary tumor [4] = conditions: rodent models; cited from earlier work
# [5] = system: 17β-estradiol (E2)-induced responses; conditions: rats, mice; cited from earlier work
# PR = conditions: 21 to 25 day-old female Sprague-Dawley rat uterus; cited from earlier work
# rat uterus = conditions: immature female rat uterus; result in words; cited from earlier work
# femurs = assay: Bone effects in ovariectomized rats (femur weight and length); type: in vivo, Sprague-Dawley rat; conditions: tamoxifen 0.4, 6-MCDF 0.8 mg/kg/day oral, 20 days
# Description: The ovariectomized rat is used as a model for osteoporosis.
# Rats were euthanized on day 21. After uteri were excised and processed, both left and right femurs were excised and the length measured with calipers. […] Wet weight was measured after residual connective tissue was stripped away. Dry weight was measured after the bones were dried for 12 ours at 130° C.
# bone tissue = conditions: cited from earlier work
# uterus [6] = assay: Uterine wet weight in ovariectomized rats (Example 4); type: in vivo, Sprague-Dawley rat; conditions: 0.4 mg/kg/day each oral, 20 days
# Description: (§2) Methods: Rats were ovariectomized at 97 days of age, and treatments began at 117 days of age. […] Rats were euthanized on day 21.
# uterus [7] = conditions: cited from earlier work
# endometrial tumor = conditions: cited from earlier work
# mammary tumors = assay: DMBA-induced rat mammary tumor model, tumor volume and weight; type: in vivo, Sprague-Dawley rat; conditions: 20 days
# Description: Female virgin Sprague-Dawley rats were obtained from Harlan (Houston) and were allowed to acclimate for 10 days, allowed access to food and water ad libitum, and maintained on a 12 h light/dark schedule. Mammary tumors were induced in 50±3 day old-rats by administering a single gavage dose of 20 mg DMBA in 0.5 ml corn oil. […] Tumor sizes were measured with calipers, and volumes were calculated by formula (length×width×depth)/6π and are expressed as percent control. […] All tumors were removed, weighed, and sectioned. One portion was frozen in liquid nitrogen for PCR analysis; one portion was placed in 10% formalin for histopathological analysis; and the majority was immediately homogenized for the preparation of microsomal and cytosolic fractions. Livers were perfused and weighed, and cytosol and microsomes were prepared as previously described.
# [8] = Body and organ weights in DMBA-treated rats
# Description: Female virgin Sprague-Dawley rats were obtained from Harlan (Houston) and were allowed to acclimate for 10 days, allowed access to food and water ad libitum, and maintained on a 12 h light/dark schedule. Mammary tumors were induced in 50±3 day old-rats by administering a single gavage dose of 20 mg DMBA in 0.5 ml corn oil. […] Tumor sizes were measured with calipers, and volumes were calculated by formula (length×width×depth)/6π and are expressed as percent control. One week after their last injection, rats were euthanized by asphyxiation. All tumors were removed, weighed, and sectioned. One portion was frozen in liquid nitrogen for PCR analysis; one portion was placed in 10% formalin for histopathological analysis; and the majority was immediately homogenized for the preparation of microsomal and cytosolic fractions. Livers were perfused and weighed, and cytosol and microsomes were prepared as previously described.
# [9] = system: uterine progesterone receptor; assay: Uterine progesterone receptor in ovariectomized rats (Example 6, Table 6); type: in vivo, Sprague-Dawley rat; conditions: tamoxifen 0.4, 6-MCDF 0.8 mg/kg/day oral, 20 days
# Excerpt: (§1) Rats were euthanized on day 21.
# uterus [10] = assay: Uterine wet weight in ovariectomized rats (Example 6, Table 6); type: in vivo, Sprague-Dawley rat; conditions: tamoxifen 0.4, 6-MCDF 0.8 mg/kg/day oral, 20 days
# Excerpt: as §1
# [11] = Body and organ weights (Examples 4 and 5)
# Description: as §2
# For the control vehicle and the MCDF vehicle ethanol was added (5% v/v) and then evaporated away.
# [12] = Body and organ weights (Example 6, Table 7)
# Description: For Table 7 and FIGS. 3 and 3B, exact aged virgin female Sprague-Dawley rats were dosed on day 55 in the afternoon with 20 mg/rat 7,12-dimethylbenz[a]anthacene in a volume of 0.5 ml/rat corn oil (rats weigh approximately 165 g, resulting in 120 mg/kg DMBA and 3 ml/kg corn oil).
# uterine cytosolic PR = assay: Uterine cytosolic PR levels in ovariectomized rats (Example 4); type: in vivo, Sprague-Dawley rat; conditions: 0.4 mg/kg/day each oral, 20 days
# Excerpt: as §1
# uterine peroxidase [13] = assay: Uterine peroxidase activity in ovariectomized rats (Example 6, Table 6); type: in vivo, Sprague-Dawley rat; conditions: tamoxifen 0.4, 6-MCDF 0.8 mg/kg/day oral, 20 days
# Excerpt: as §1
# uterine peroxidase [14] = assay: Uterine peroxidase assay in ovariectomized rats (Example 4); type: in vivo, Sprague-Dawley rat; conditions: 0.4 mg/kg/day each oral, 20 days
# Excerpt: as §1
# mammary tumor [15] = conditions: cited from earlier work
# liver = conditions: result in words; cited from earlier work
# CYP1A1 [16] = conditions: result in words; cited from earlier work
# [17] = each drug 0.4 mg/kg/day by gavage, DMBA rats
structure (smiles),measurement,setting,value
"Clc1cc2c(cc1Cl)Oc1cc(Cl)c(Cl)cc1O2 [TCDD, 2,3,7,8-tetrachlorodibenzo-p-dioxin, reference compound]",antiestrogenic activity,[1],effective antiestrogen
same,induction of CYP1A1,CYP1A1 [2]; result in words,induces toxic and biochemical responses
same,hepatocarcinogenicity,[3],too hepatocarcinogenic
same,nuclear and cytosolic ER binding,ER,dose-dependent decrease
same,mammary tumor growth,mammary tumor [4],inhibit mammary tumor growth
same,antiestrogenic activity,[5],effective antiestrogen
same,nuclear and cytosolic progesterone receptor (PR) binding,PR,dose-dependent decrease
"Cc1cc2c(cc1Cl)oc1c(Cl)c(Cl)c(Cl)cc12 [8-methyl-2,3,4,7-tetraCDF]",ED50 for induction of hepatic CYP1A1-dependent activity,CYP1A1 [2]; rat,5.31 mmol/kg
same,ED50 values for antiestrogenicity,rat uterus,similar
"CC/C(=C(\c1ccccc1)c1ccc(OCCN(C)C)cc1)c1ccccc1 [tamoxifen, reference compound]",Dry bone weight,femurs; control 0.180 ± 0.005,0.216 ± 0.005 % body weight
same,Wet bone weight,femurs; control 0.347 ± 0.009,0.403 ± 0.007 % body weight
same,effect in bone,bone tissue; cycling rats (Takahashi et al. 1996),no effect
same,effect in bone tissue,bone tissue; ovariectomized rats (Turner et al. 1987),acted as an estrogen agonist
same,Uterine Wet Weight (% body wt),uterus [6]; control 0.045 ± 0.002,0.085 ± 0.004 % body wt
same,Uterine Wet Weight,uterus [6]; control 0.131 ± 0.006,0.211 ± 0.011 g
same,uterine hyperplasia,uterus [7]; most animal models,induced uterine hyperplasia
same,rat uterine wet weight,"uterus [7]; rat, result in words",significant dose dependent increases
same,risk for endometrial tumor formation,"endometrial tumor; 2843 patients, 20 mg/day (Fisher et al. 1994)",7.5 fold
same,risk for endometrial tumors,"endometrial tumor; Danish trial, 30 mg/day for one year",3.3 fold
same,risk for endometrial tumors,"endometrial tumor; Scottish and Manchester England trials, 20 mg/day",no increased risk
same,risk for endometrial tumors,"endometrial tumor; South-Swedish trial, 30 mg/day for one year",2.0 fold
same,risk for endometrial tumors,"endometrial tumor; Stockholm trial, 40 mg/day for 2 years",approximately 6 fold
same,risk/incidence of endometrial cancer,"endometrial tumor; women, breast cancer treatment, result in words",Risk of endometrial cancer increases
same,Tumor Wt (% Control),"mammary tumors; 0.4 mg/kg/day each, control 100 ± 27.7",61.5 ± 30.4 % Control
same,Final Tumor Volume (% Control),"mammary tumors; 0.4 mg/kg/day each, control 100 ± 31.5",41.5 ± 20 % Control
same,Final Tumor Volume,"mammary tumors; 0.4 mg/kg/day each, control 2734 ± 956",1135 ± 587 mm^3
same,% Inhibition tumor volume,mammary tumors; [17],58.5%
same,% Inhibition tumor weight,mammary tumors; [17],NS decrease
same,Uterine Wt.,"[8]; 0.4 mg/kg/day each, 20 days, control 0.212 ± 0.017",0.142 ± 0.006 % BW
same,Spleen Wt.,"[8]; 0.4 mg/kg/day each, 20 days, control 0.257 ± .022",0.236 ± 0.019 % BW
same,Kidney weight,"[8]; 0.4 mg/kg/day each, 20 days, control 0.349 ± 0.007",0.386 ± 0.012 % BW
same,Liver weight,"[8]; 0.4 mg/kg/day each, 20 days, control 3.13 ± 0.12",3.64 ± 0.18 % BW
same,Final Body Weight,"[8]; 0.4 mg/kg/day each, 20 days, control 250 ± 5",243 ± 4 g
same,Heart weight,"[8]; rat, in vivo",0.420 ± 0.018 % BW
same,Uterine Progesterone Receptor (fmol/mg protein),[9]; control 198 ± 15,790 ± 21 fmol/mg protein
same,Uterine Progesterone Receptor (fmol/uterus),[9]; control 765 ± 69,9062 ± 244 fmol/uterus
same,Uterine Progesterone Receptor (fmol/g uterus),[9]; control 4462 ± 343,43666 ± 1175 fmol/g uterus
same,Uterine wet weight (% body weight),uterus [10]; control 0.0583 ± 0.0055,0.0857 ± 0.0036 % body weight
same,Uterine wet weight,uterus [10]; control 0.171 ± 0.15,0.208 ± 0.009 g
same,Rat weight at start of treatments,"[11]; Table 5, baseline, control 273.1 ± 8.1",275.7 ± 7.6 g
same,Spleen wet weight (% body wt),"[11]; Table 5, control 0.247 ± 0.007",0.252 ± .008 % body wt
same,kidney weight (% body wt),"[11]; Table 5, control 0.318 ± 0.010",0.334 ± 0.008 % body wt
same,Heart weight (% body wt),"[11]; Table 5, control 0.319 ± 0.006",0.346 ± 0.005 % body wt
same,Spleen wet weight,"[11]; Table 5, control 0.72O ± 0.012",0.631 ± 0.037 g
same,Kidney weight,"[11]; Table 5, control 0.933 ± 0.038",0.837 ± 0.045 g
same,Heart weight,"[11]; Table 5, control 0.935 ± 0.039",0.864 ± 0.031 g
same,Liver weight (% body wt),"[11]; Table 5, control 4.06 ± 0.23",4.26 ± 0.26 % body wt
same,Liver weight,"[11]; Table 5, control 11.88 ± 0.78",10.70 ± 0.92 g
same,Rat weight prior to euthanasia,"[11]; Table 5, control 293.2 ± 10.9",249.8 ± 7.6 g
same,Rat weight at start of treatments,"[12]; Table 7, baseline, control 255 ± 3",261 ± 9 g
same,Spleen weight (% body weight),"[12]; Table 7, control 0.289 ± 0.018",0.254 ± 0.018 % body weight
same,Kidney weight (% body weight),"[12]; Table 7, control 0.334 ± 0.010",0.369 ± 0.017 % body weight
same,Heart weight (% body weight),"[12]; Table 7, control 0.360 ± 0.010",0.357 ± 0.023 % body weight
same,Rat weight prior to euthanasia,"[12]; Table 7, control 295 ± 11",242 ± 6 g
same,Uterine cytosolic PR levels (fmol/mg protein),uterine cytosolic PR; control 308 ± 142,674 ± 52 fmol/mg protein
same,Uterine cytosolic PR levels (fmol/uterus),uterine cytosolic PR; control 1100 ± 508,4501 ± 350 fmol/uterus
same,Uterine cytosolic PR levels (fmol/g uterus),uterine cytosolic PR; control 8368 ± 3868,21301 ± 1655 fmol/g uterus
same,Uterine Peroxidase Activity (Absorbance/g uterus),uterine peroxidase [13]; per g uterus,31.94 ± 0.26 Fold Increase over control
same,Uterine Peroxidase Activity (Absorbance/mg protein),uterine peroxidase [13]; per mg protein,26.76 ± 0.22 Fold Increase over control
same,Uterine Peroxidase Activity (Absorbance/uterus),uterine peroxidase [13]; per uterus,38.66 ± 0.32 Fold Increase over control
same,Uterine Peroxidase Assay (Abs/g uterus),uterine peroxidase [14]; per g uterus,17.7 ± 0.45 Fold Increase over Control
same,Uterine Peroxidase Assay (Abs/mg protein),uterine peroxidase [14]; per mg protein,17.5 ± 0.60 Fold Increase over Control
same,Uterine Peroxidase Assay (Abs/uterus),uterine peroxidase [14]; per uterus,28.41 ± 0.73 Fold Increase over Control
"CC(C)c1cc(Cl)cc2c1oc1cc(Cl)cc(Cl)c12 [6-i-propyl-1,3,8-triCDF]",ED50 (CYP1A1 induction)/ED50 (antiestrogenicity) ratio,"CYP1A1 [2]; rat, high ratio indicates low toxicity and high antiestrogenic potency","13,990-17,100"
same,ED50 values for antiestrogenicity,rat uterus,similar
"Cc1cc(Cl)cc2c1oc1c(Cl)c(Cl)c(Cl)cc12 [6-methyl-2,3,4,8-tetraCDF, 6-methyl-2,3,4,8-tetrachlorodibenzofuran]",ED50 for induction of hepatic CYP1A1-dependent activity,CYP1A1 [2]; rat,8.52 mmol/kg
same,ED50 values for antiestrogenicity,rat uterus,similar
"Clc1cc(Cl)c2c(c1)oc1c(C3CCCCC3)cc(Cl)cc12 [6-CHDF, 6-cyclohexyl-1,3,8-triCDF]",antitumorigenic activity,"mammary tumor [15]; 5 mg/kg/wk, result in words",inactive
"Cc1cc(Cl)c2oc3cc(Cl)cc(Cl)c3c2c1 [8-MCDF, 8-methyl-1,3,6-trichlorodibenzofuran]",liver morphology,liver,not accompanied by any significant changes
same,liver/body weight ratios,liver,not accompanied by any significant changes
same,induction of hepatic CYP1A1-dependent activity,CYP1A1 [16],not accompanied by any significant changes
same,growth inhibition,mammary tumor [15]; 5 mg/kg/wk,> 50%
same,mammary tumor growth,"mammary tumor [15]; 5, 10 or 25 mg/kg/wk, result in words",significantly inhibited
